Measured values as given in the supplement of paper PMC10627819.

Tests used:
[1] = tested on: S. pneumoniae D39V; assay: fitness (endpoint OD595 vs no drug) (fraction); higher = more growth
How it was run: (§1)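 Bacterial growth was followed in 384-well plates seeded at OD595 0.01, with 30 µl per well, or 55 µl for S. pneumoniae, in TSB, LB Lennox or CY at 37 °C. OD595 was read every 30 min for 14 h, and each reading had the first reading subtracted as background. Fitness is the background-corrected optical density at entry into stationary phase divided by the robust mean of the no-drug control wells. This ratio is capped at 1.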

[2] = tested on: S. aureus Newman; assay: as above
How it was run: as §1

[3] = tested on: S. aureus DSM 20231; assay: as above
How it was run: as §1

[4] = tested on: B. subtilis 168; assay: as above
How it was run: as §1

[5] = tested on: S. pneumoniae D39V; assay: Bliss interaction score (quartile over a dose matrix) (fitness difference); higher = more antagonism (negative = synergy)
How it was run: (§2)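 Fitness was defined as normalised growth: OD595 at the start of stationary phase divided by the plate's robust no-drug mean and capped at 1. Single-drug fitness was inferred from combination measurements. The Bliss score is observed fitness minus the product of the single-drug values, summarised by quartiles across technical, biological and donor/recipient replicates.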

[6] = tested on: S. aureus Newman; assay: as above
How it was run: as §2

[7] = tested on: S. aureus DSM 20231; assay: as above
How it was run: as §2

[8] = tested on: B. subtilis 168; assay: as above
How it was run: as §2
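For Bliss interaction score (quartile over a dose matrix) in this document: first quartile when negative (synergy) and third quartile when positive (antagonism).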

CO/N=C(\C(=O)N[C@@H]1C(=O)N2C(C(=O)O)=C(COC(C)=O)CS[C@H]12)c1csc(N)n1 [Cefotaxime] + CCN(CC)CCOC(=O)c1ccc(N)cc1 [Procaine]
fitness
Conditions	partner 85.5 µg/mL	partner 171 µg/mL	partner 342 µg/mL
[1], first compound 0.0018 µg/mL	≥ 1	≥ 1	≥ 1
[1], first compound 0.0035 µg/mL	0.954	≥ 1	0.945
[1], first compound 0.007 µg/mL	0.904	0.92	0.844
[2], first compound 0.625 µg/mL	0.169	0.111	0.139
[2], first compound 1.25 µg/mL	0.0581	0.0383	0.0412
[2], first compound 2.5 µg/mL	0.0238	0.0269	0.0485
[3], first compound 0.078 µg/mL	0.721	0.786	0.77
[3], first compound 0.156 µg/mL	0.62	0.703	0.712
[3], first compound 0.312 µg/mL	0.579	0.67	0.664
[4], first compound 0.5 µg/mL	0.243	0.225	0.259
[4], first compound 1 µg/mL	0.165	0.125	0.169
[4], first compound 2 µg/mL	0.0861	0.0682	0.118

fitness, one replicate
Conditions	partner 85.5 µg/mL	partner 171 µg/mL	partner 342 µg/mL
[2], first compound 0.078 µg/mL	0.608	0.612	0.595
[2], first compound 0.156 µg/mL	0.454	0.459	0.438
[2], first compound 0.312 µg/mL	0.276	0.255	0.264
[3], first compound 0.039 µg/mL	0.632	0.766	0.762
[4], first compound 0.00775 µg/mL	0.834	0.848	0.811
[4], first compound 0.0155 µg/mL	0.701	0.691	0.64
[4], first compound 0.031 µg/mL	0.583	0.572	0.561

Conditions	Bliss interaction score
[5]	-0.0264
[6]	-0.0467
[7]	-0.0909
[8]	0.0852

CO/N=C(\C(=O)N[C@@H]1C(=O)N2C(C(=O)O)=C(COC(C)=O)CS[C@H]12)c1csc(N)n1 [Cefotaxime] + CN1C2=CC=CC=C2N=C3C1=CC=CC3=O [Pyocyanin]
fitness
Conditions	partner 0.325 µg/mL	partner 0.65 µg/mL	partner 1.25 µg/mL	partner 1.3 µg/mL	partner 2.5 µg/mL	partner 5 µg/mL
[1], first compound 0.0018 µg/mL	0.992	≥ 1	–	0.904	–	–
[1], first compound 0.0035 µg/mL	0.98	≥ 1	–	0.871	–	–
[1], first compound 0.007 µg/mL	0.934	0.947	–	0.839	–	–
[2], first compound 0.078 µg/mL	–	–	0.671	–	0.654	0.399
[2], first compound 0.156 µg/mL	–	–	0.527	–	0.552	0.354
[2], first compound 0.312 µg/mL	–	–	0.311	–	0.319	0.204
[3], first compound 0.078 µg/mL	–	–	0.746	–	0.766	0.55
[3], first compound 0.156 µg/mL	–	–	0.757	–	0.746	0.511
[3], first compound 0.312 µg/mL	–	–	0.676	–	0.671	0.474
[4], first compound 0.5 µg/mL	–	–	0.291	–	0.264	0.229
[4], first compound 1 µg/mL	–	–	0.144	–	0.102	0.111
[4], first compound 2 µg/mL	–	–	0.0757	–	0.0908	0.0747

fitness, one replicate
Conditions	partner 1.25 µg/mL	partner 2.5 µg/mL	partner 5 µg/mL
[2], first compound 0.039 µg/mL	0.677	0.696	0.424
[2], first compound 0.625 µg/mL	0.0517	0.0483	0.0237
[2], first compound 1.25 µg/mL	0.0559	0.0861	0.0706
[2], first compound 2.5 µg/mL	0.0452	0.0518	0.0704
[3], first compound 0.039 µg/mL	0.748	0.738	0.512
[4], first compound 0.00775 µg/mL	0.775	0.712	0.534
[4], first compound 0.0155 µg/mL	0.665	0.543	0.407
[4], first compound 0.031 µg/mL	0.522	0.462	0.35

Conditions	Bliss interaction score
[5]	0.0458
[6]	0.0647
[7]	0.0641
[8]	0.0372
